From patent publication US7754239B2, “Capsule for rapid solubilization and release of the content” (V. Mane Fils S.A., priority 2001, dated 2010)

Test: In vitro kinetics of release of aromatic molecules in water (test A samples)
Assay type: physicochemical
Details: water 37° C., pH 6.5, 5 mm capsule of Example 3; for Total concentration of aromatic molecules over all samples: Total 0-70 seconds
Method: A 5 mm capsule, the composition of which is given in Table 5, is analyzed according to test A.
The taking of various samples makes it possible to establish the in vitro kinetics of release of aromatic molecules in water at 37° C.+/−1° C. and at pH 6.5. Table 6 indicates the concentration of aromatic molecules of various samples.
It may be noted that most of the molecules are released within 40 s, at most within 70 s.

| Compound | Total concentration of aromatic molecules over all samples | concentration of aromatic molecules of sample (time 0-5 seconds) | concentration of aromatic molecules of sample (time 5-10 seconds) | concentration of aromatic molecules of sample (time 10-15 seconds) | concentration of aromatic molecules of sample (time 15-20 seconds) | concentration of aromatic molecules of sample (time 20-30 seconds) | concentration of aromatic molecules of sample (time 30-40 seconds) | concentration of aromatic molecules of sample (time 40-50 seconds) | concentration of aromatic molecules of sample (time 50-60 seconds) | concentration of aromatic molecules of sample (time 60-70 seconds) |
| --- | --- | --- | --- | --- | --- | --- | --- | --- | --- | --- |
| CC1CCC(C(C)C)C(O)C1 (centres unmarked) [Menthol] | 399 ppm | 47 ppm | 67 ppm | 63 ppm | 90 ppm | 62 ppm | 24 ppm | 24 ppm | 16 ppm | 6 ppm |
| Cc1ccc(C(C)C)c(O)c1 [Thymol] | 139 ppm | 19 ppm | 28 ppm | 22 ppm | 31 ppm | 20 ppm | 7 ppm | 7 ppm | 4 ppm | 1 ppm |
